Data from PubChem BioAssay (NCI).
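GI50 is the concentration that inhibits growth by half. Definition used: TGI = concentration required for complete inhibition of growth.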

Experiments:
Test in all cases: NCI tumour cell line growth inhibition, 384-well format
M14 melanoma = system: M14 melanoma
SF-295 CNS = system: SF-295 CNS
TK-10 renal = system: TK-10 renal
MCF7 breast = system: MCF7 breast
UO-31 renal = system: UO-31 renal
MALME-3M melanoma = system: MALME-3M melanoma
HOP-92 NSCLC = system: HOP-92 NSCLC
NCI-H460 NSCLC = system: NCI-H460 NSCLC
HCT-116 colon = system: HCT-116 colon
NCI-H226 lung = system: NCI-H226 lung
HL-60(TB) leukemia = system: HL-60(TB) leukemia
LOX IMVI melanoma = system: LOX IMVI melanoma
SF-268 CNS = system: SF-268 CNS
K-562 leukemia = system: K-562 leukemia
786-0 renal = system: 786-0 renal
RPMI-8226 leukemia = system: RPMI-8226 leukemia
NCI-H23 lung = system: NCI-H23 lung
SNB-75 CNS = system: SNB-75 CNS
SW-620 colon = system: SW-620 colon
NCI-H522 lung = system: NCI-H522 lung
BT-549 breast = system: BT-549 breast
OVCAR-8 ovarian = system: OVCAR-8 ovarian
SK-OV-3 ovarian = system: SK-OV-3 ovarian
HT29 colon = system: HT29 colon
CAKI-1 renal = system: CAKI-1 renal
T-47D breast = system: T-47D breast
HCC-2998 colon = system: HCC-2998 colon
COLO 205 colon = system: COLO 205 colon
SK-MEL-5 melanoma = system: SK-MEL-5 melanoma
PC-3 prostate = system: PC-3 prostate
SK-MEL-28 melanoma = system: SK-MEL-28 melanoma
RXF 393 renal = system: RXF 393 renal
SN12C renal = system: SN12C renal
A498 renal = system: A498 renal
A549 NSCLC = system: A549 NSCLC
MDA-MB-435 melanoma = system: MDA-MB-435 melanoma
HCT-15 colon = system: HCT-15 colon
NCI-H322M lung = system: NCI-H322M lung
NCI/ADR-RES ovarian = system: NCI/ADR-RES ovarian
MDA-MB-468 breast = system: MDA-MB-468 breast
ACHN renal = system: ACHN renal
SF-539 CNS = system: SF-539 CNS
MDA-MB-231 breast = system: MDA-MB-231 breast
OVCAR-4 ovarian = system: OVCAR-4 ovarian
MOLT-4 leukemia = system: MOLT-4 leukemia
CCRF-CEM leukemia = system: CCRF-CEM leukemia
SR leukemia = system: SR leukemia
SNB-19 CNS = system: SNB-19 CNS
KM12 colon = system: KM12 colon
DU-145 prostate = system: DU-145 prostate
HS 578T breast = system: HS 578T breast
OVCAR-3 ovarian = system: OVCAR-3 ovarian
HOP-62 NSCLC = system: HOP-62 NSCLC
IGROV1 ovarian = system: IGROV1 ovarian
UACC-257 melanoma = system: UACC-257 melanoma
UACC-62 melanoma = system: UACC-62 melanoma
EKVX NSCLC = system: EKVX NSCLC
U251 glioblastoma = system: U251 glioblastoma
OVCAR-5 ovarian = system: OVCAR-5 ovarian

## CC(C)c1c(-c2ccccc2)nc2c(C#N)c[nH]n2c1=O
M14 melanoma
  GI50: 30.7 µM
  TGI: 96.8 µM
SF-295 CNS
  GI50: 22.9 µM
  TGI: 62.4 µM
TK-10 renal
  GI50: 34.1 µM
  TGI: > 100 µM
MCF7 breast
  GI50: 20.9 µM
  TGI: 54.7 µM
UO-31 renal
  GI50: 38.9 µM
  TGI: > 100 µM
MALME-3M melanoma
  GI50: 17.6 µM
  TGI: 36.1 µM
HOP-92 NSCLC
  GI50: 30.5 µM
  TGI: 89 µM
NCI-H460 NSCLC
  GI50: 27.4 µM
  TGI: 65.3 µM
HCT-116 colon
  GI50: 34.5 µM
  TGI: > 100 µM
NCI-H226 lung
  GI50: 27 µM
  TGI: 70.9 µM
HL-60(TB) leukemia
  GI50: 12.2 µM
  TGI: 25.7 µM
LOX IMVI melanoma
  GI50: 21.1 µM
  TGI: 41.9 µM
SF-268 CNS
  GI50: 36.6 µM
  TGI: > 100 µM
K-562 leukemia
  GI50: 37.7 µM
  TGI: > 100 µM
786-0 renal
  GI50: 33.6 µM
  TGI: > 100 µM
RPMI-8226 leukemia
  GI50: 21.1 µM
  TGI: 37.9 µM
NCI-H23 lung
  GI50: 20.3 µM
  TGI: 44.5 µM
SNB-75 CNS
  GI50: 35.2 µM
  TGI: > 100 µM
SW-620 colon
  GI50: 38.8 µM
  TGI: > 100 µM
NCI-H522 lung
  GI50: 19 µM
  TGI: 37.6 µM
BT-549 breast
  GI50: 39.9 µM
  TGI: > 100 µM
OVCAR-8 ovarian
  GI50: 37.6 µM
  TGI: > 100 µM
SK-OV-3 ovarian
  GI50: 36.8 µM
  TGI: > 100 µM
HT29 colon
  GI50: 38 µM
  TGI: > 100 µM
CAKI-1 renal
  GI50: 44.8 µM
  TGI: > 100 µM
T-47D breast
  GI50: 21 µM
  TGI: 42.9 µM
HCC-2998 colon
  GI50: 44.9 µM
  TGI: > 100 µM
COLO 205 colon
  GI50: 24.1 µM
  TGI: 47.9 µM
SK-MEL-5 melanoma
  GI50: 19.4 µM
  TGI: 35.6 µM
PC-3 prostate
  GI50: 37.2 µM
  TGI: > 100 µM
SK-MEL-28 melanoma
  GI50: 28.5 µM
  TGI: 96.8 µM
RXF 393 renal
  GI50: 28.6 µM
  TGI: > 100 µM
SN12C renal
  GI50: 20.3 µM
  TGI: 41.9 µM
A498 renal
  GI50: 40.2 µM
  TGI: > 100 µM
A549 NSCLC
  GI50: 33.1 µM
  TGI: > 100 µM
MDA-MB-435 melanoma
  GI50: 39.9 µM
  TGI: > 100 µM
HCT-15 colon
  GI50: 38.8 µM
  TGI: > 100 µM
NCI-H322M lung
  GI50: 33.6 µM
  TGI: > 100 µM
NCI/ADR-RES ovarian
  GI50: 27.5 µM
  TGI: 69.5 µM
MDA-MB-468 breast
  GI50: 19.6 µM
  TGI: 37.2 µM
ACHN renal
  GI50: 38.3 µM
  TGI: > 100 µM
SF-539 CNS
  GI50: 34.2 µM
  TGI: > 100 µM
MDA-MB-231 breast
  GI50: 24.2 µM
  TGI: 53.5 µM
OVCAR-4 ovarian
  GI50: 25.9 µM
  TGI: 74.2 µM
MOLT-4 leukemia
  GI50: 16.2 µM
  TGI: 29.9 µM
CCRF-CEM leukemia
  GI50: 20.8 µM
  TGI: 42.4 µM
SR leukemia
  GI50: 25.2 µM
  TGI: 41.2 µM
SNB-19 CNS
  GI50: 43.6 µM
  TGI: > 100 µM
KM12 colon
  GI50: 30.8 µM
  TGI: > 100 µM
DU-145 prostate
  GI50: 31.9 µM
  TGI: > 100 µM
HS 578T breast
  GI50: 37.7 µM
  TGI: > 100 µM
OVCAR-3 ovarian
  GI50: 18 µM
  TGI: 36.3 µM
HOP-62 NSCLC
  GI50: 24.9 µM
  TGI: 65.9 µM
IGROV1 ovarian
  GI50: 44 µM
  TGI: > 100 µM
UACC-257 melanoma
  GI50: 22.3 µM
  TGI: 46.3 µM
UACC-62 melanoma
  GI50: 24.2 µM
  TGI: 66.7 µM
EKVX NSCLC
  GI50: 22.4 µM
  TGI: 46.4 µM
U251 glioblastoma
  GI50: 34.4 µM
  TGI: > 100 µM

## O=C(NOC[C@H](O)CO)c1ccc(F)c(F)c1Nc1ccc(I)cc1F
M14 melanoma
  GI50: < 0.01 µM
  TGI: < 0.01 µM
SF-295 CNS
  GI50: 22.3 µM
  TGI: > 100 µM
TK-10 renal
  GI50: 0.689 µM
  TGI: > 100 µM
MCF7 breast
  GI50: 33.7 µM
  TGI: > 100 µM
UO-31 renal
  GI50: 0.506 µM
  TGI: 24.1 µM
MALME-3M melanoma
  GI50: < 0.01 µM
  TGI: < 0.01 µM
HOP-92 NSCLC
  GI50: 0.0133 µM
  TGI: 0.492 µM
NCI-H460 NSCLC
  GI50: 0.369 µM
  TGI: > 100 µM
NCI-H226 lung
  GI50: < 0.01 µM
  TGI: 18.1 µM
HL-60(TB) leukemia
  GI50: < 0.01 µM
  TGI: < 0.01 µM
LOX IMVI melanoma
  GI50: < 0.01 µM
  TGI: 0.722 µM
SF-268 CNS
  GI50: 33.3 µM
  TGI: > 100 µM
K-562 leukemia
  GI50: 0.205 µM
  TGI: > 100 µM
786-0 renal
  GI50: 10.4 µM
  TGI: > 100 µM
RPMI-8226 leukemia
  GI50: < 0.01 µM
  TGI: 18 µM
NCI-H23 lung
  GI50: < 0.01 µM
  TGI: 0.391 µM
SNB-75 CNS
  GI50: 2.68 µM
  TGI: 74.2 µM
SW-620 colon
  GI50: < 0.01 µM
  TGI: > 100 µM
NCI-H522 lung
  GI50: 15.3 µM
  TGI: > 100 µM
BT-549 breast
  GI50: 9.53 µM
  TGI: > 100 µM
OVCAR-8 ovarian
  GI50: 11.8 µM
  TGI: > 100 µM
SK-OV-3 ovarian
  GI50: 7.02 µM
  TGI: > 100 µM
HT29 colon
  GI50: < 0.01 µM
  TGI: > 100 µM
CAKI-1 renal
  GI50: 0.0974 µM
  TGI: > 100 µM
T-47D breast
  GI50: 11.8 µM
  TGI: > 100 µM
HCC-2998 colon
  GI50: < 0.01 µM
  TGI: 0.0395 µM
COLO 205 colon
  GI50: < 0.01 µM
  TGI: 0.0136 µM
SK-MEL-5 melanoma
  GI50: < 0.01 µM
  TGI: 45.8 µM
PC-3 prostate
  GI50: > 100 µM
  TGI: > 100 µM
SK-MEL-28 melanoma
  GI50: < 0.01 µM
  TGI: < 0.01 µM
RXF 393 renal
  GI50: 0.645 µM
  TGI: > 100 µM
SN12C renal
  GI50: < 0.01 µM
  TGI: 22.9 µM
A498 renal
  GI50: 0.436 µM
  TGI: > 100 µM
A549 NSCLC
  GI50: 0.0196 µM
  TGI: 25.5 µM
MDA-MB-435 melanoma
  GI50: < 0.01 µM
  TGI: > 100 µM
HCT-15 colon
  GI50: 0.749 µM
  TGI: > 100 µM
NCI-H322M lung
  GI50: 0.0373 µM
  TGI: > 100 µM
NCI/ADR-RES ovarian
  GI50: 6.17 µM
  TGI: 85.1 µM
MDA-MB-468 breast
  GI50: 0.865 µM
  TGI: 10.9 µM
ACHN renal
  GI50: 0.471 µM
  TGI: > 100 µM
SF-539 CNS
  GI50: 1.34 µM
  TGI: 65.9 µM
MDA-MB-231 breast
  GI50: 0.0331 µM
  TGI: 0.934 µM
OVCAR-4 ovarian
  GI50: 0.0375 µM
  TGI: 65.7 µM
MOLT-4 leukemia
  GI50: 28.1 µM
  TGI: 92.7 µM
CCRF-CEM leukemia
  GI50: 39.8 µM
  TGI: > 100 µM
SR leukemia
  GI50: 26.4 µM
  TGI: > 100 µM
SNB-19 CNS
  GI50: 0.164 µM
  TGI: > 100 µM
KM12 colon
  GI50: < 0.01 µM
  TGI: > 100 µM
DU-145 prostate
  GI50: 3.46 µM
  TGI: > 100 µM
HS 578T breast
  GI50: 2.73 µM
  TGI: > 100 µM
OVCAR-3 ovarian
  GI50: 21.8 µM
  TGI: > 100 µM
HOP-62 NSCLC
  GI50: 0.0116 µM
  TGI: > 100 µM
IGROV1 ovarian
  GI50: 0.0573 µM
  TGI: 39.1 µM
UACC-257 melanoma
  GI50: < 0.01 µM
  TGI: < 0.01 µM
UACC-62 melanoma
  GI50: < 0.01 µM
  TGI: < 0.01 µM
EKVX NSCLC
  GI50: 0.358 µM
  TGI: > 100 µM
U251 glioblastoma
  GI50: 0.577 µM
  TGI: > 100 µM
OVCAR-5 ovarian
  GI50: < 0.01 µM
  TGI: 26.1 µM
